Results reported in patent US4886821A, “2-pyridinecarbothioamides and pharmaceutical compositions comprising the same useful as anti ulcer agents” (American Home Products Corporation, priority 1987, dated 1989).

Key:
[1] = system: gastric mucosal lesions produced by ethanol; assay: Ethanol induced cytotoxicity (gastric mucosal lesions) in rats; type: in vivo, Male Sprague-Dawley rats; details: for ED50: Rattus norvegicus, po; for % Inhibition: oral, inhibition of lesion formation vs control
Experimental: The purpose of this assay is to evaluate the effectiveness of the compounds of the present invention in preventing the formation of gastric mucosal lesions produced by ethanol. The assay is based on A. Robert, et al: Gastroenterology, 77: 433-443, 1979.
Male Sprague-Dawley rats weighing between 120-150 grams were fasted for 24 hours prior to the experiment (water ad libitum). At least two hours before dosing, the animals were placed in individual cages with wire grid bottoms and denied access to water.
Ethanol was administered orally at 1 mL per animal. The compounds of the present invention were dissolved in water or suspended in water with 0.5% carboxymethylcellulose and administered orally at a dose based on an appropriate standard giving ED50 to ED75 response of cytoprotective activity.
The rats were randomly divided into groups of equal number, ordinarily 10 to a group. The rats were weighed and the individual weights were recorded. Exactly 1 hour (4 hours in the case of Example 5) prior to the administration of ethanol, the screening group was treated with the compounds of the present invention, and the control group with the vehicle. One hour after administering the ethanol the animals were sacrificed by cervical dislocation. The stomachs were removed, cut along the greater curvature and cleansed of all debris with tap water. The stomachs were set aside and kept moist with saline until the lesions were scored.
Macroscopic lesions on the gastric mucosa were numerically graded. The final grade assigned a stomach was the sum of all the grades.
Streaks longer than 6 mm are graded in multiples of 2 mm.
The degree of cytotoxicity occuring in each group is represented as the mean±S.E.M.
The mean of each treatment group was compared to the control group and expressed as the % inhibition of lesion formation.

stress induced ulcers = assay: Stress-induced gastric ulcers in rats; type: in vivo, Male rats; details: Rattus norvegicus, po; orally or parenterally, usually 15 to 45 minutes prior to stress; restraint at 4-5 °C for 3 hours, sodium taurocholate p.o.; read-out: Stress Induced Ulcer ED50
Experimental: The purpose of this assay is to evaluate the effectiveness of the compounds of the present invention in preventing stress induced ulcers.
Male rats (280-380 g) were fasted for 18 hours (water available ad libitum) prior to use in experiments. Eight to twelve rats were used per group.
Drug solutions or suspensions were prepared in physiological saline solution. Suspensions were prepared with the aid of 0.5% carboxymethylcellulose in physiological saline solution. Drugs were administered orally or parenterally at predetermined intervals (usually 15 to 45 minutes) prior to stress.
This test procedure is according to the method of Senay et al., Proc. Soc. Exp. Biol. Med. 124, 1221 (1967), modified to produce a more consistent ulcer incidence. After drug administration, the rats were immobilized in metallic restrainers and placed in a cold room at 4°-5° C. for 3 hours before they were killed by cervical dislocation. Each rat was given 20 mg of sodium taurocholate p.o. immediately before placing it in the restrainer. After killing the rats, the stomachs were excised and examined. Macroscopic ulcers were subjectively assigned a grade from 1 to 3 on the basis of increasing size. The number of ulcers in each size category was determined and multiplied by the respective grade; the addition of the resultant values gave the cumulative ulcer score. The average cumulative ulcer score of each treatment group was compared to that of the control group and the percent inhibition of ulcer formation as calculated. When the responses obtained were directly proportional to the doses employed, ED50 values were determined from the dose-response curves obtained.

ethanol induced ulcer = details: Robert et al., Scand. J. Gastroenterol. 1984; cited from earlier work
[2] = 10 mg/kg, 1 hour prior to ethanol

Row | SMILES | ED50 [1] [mg/kg] | ED50 (stress induced ulcers) [mg/kg] | also measured
1 | Fc1ccc(F)c(NC(=S)c2ccccn2)c1 [Example 12, N--(2,5-difluorophenyl)-2-pyridinecarbothioamide] | 6.2 | – | –
2 | Fc1ccc(NC(=S)c2ccccn2)c(F)c1 [Example 2, N-(2,4-Difluorophenyl)-2-pyridinecarbothioamide] | 4.8 | 38 | –
3 | CCN(C(=S)c1ccccn1)c1cc(F)cc(F)c1 [Example 8, N-(3,5-Difluorophenyl)-N-ethyl-2-pyridinecarbothioamide] | – | – | % Inhibition [1, 2]: 13%
4 | CC(C)[N+](C)(CCOC(=O)C1c2ccccc2Oc2ccccc21)C(C)C [propantheline bromide] | – | – | protection in ethanol induced ulcer model (ethanol induced ulcer): do not protect in this model
5 | Fc1cccc(NC(=S)c2ccccn2)c1 [Example 4, N-(3-Fluorophenyl)-2-pyridinecarbothioamide] | 1 | – | –
6 | Fc1ccc(NC(=S)c2ccccn2)cc1 [Example 3, N-(4-Fluorophenyl)-2-pyridinecarbothioamide] | 2.5 | 3.8 | –
7 | CN(C(=S)c1ccccn1)c1cccc(F)c1 [Example 6, N-(3-Fluorophenyl)-N-methyl-2-pyridinecarbothioamide] | – | – | % Inhibition [1, 2]: 31%
8 | CN(C(=S)c1ccccn1)c1cc(F)cc(F)c1 [Example 7, N-(3,5-Difluorophenyl)-N-methyl-2-pyridinecarbothioamide] | – | – | % Inhibition ([1]; 25 mg/kg, 1 hour prior to ethanol): 40%
9 | Fc1cccc(F)c1NC(=S)c1ccccn1 [Example 9, N-(2,6-Difluorophenyl)-2-pyridinecarbothioamide] | 0.38 | 1.8 | –
10 | Fc1ccccc1NC(=S)c1ccccn1 [Example 5, N-(2-Fluorophenyl)-2-pyridinecarbothioamide] | – | – | % Inhibition ([1]; 100 mg/kg, 4 hours prior to ethanol): 69%
11 | Fc1cccc(NC(=S)c2ccccn2)c1F [Example 10, N--(2,3-difluorophenyl)-2-pyridinecarbothioamide] | 1 | 0.9 | –
12 | CN/C(=N/CCSCc1nc[nH]c1C)NC#N [cimetidine] | – | – | protection in ethanol induced ulcer model (ethanol induced ulcer): do not protect in this model
